Source: patent US20060100431A1, “Biologically active compounds” (Amura Therapeutics Limited, priority 2002, published 2006)

Assays:
human cathepsin K = biological target: T1, human cathepsin K (Homo sapiens, UniProt P43235); assay: Cathepsin K peptidase activity assay (Ki); format: biochemical; conditions: Table 5
T1 construct: Dr. Boris Turk (Josef Stefan Institute, Ljubljana, Slovenia)
T1 sequence (P43235 115-329): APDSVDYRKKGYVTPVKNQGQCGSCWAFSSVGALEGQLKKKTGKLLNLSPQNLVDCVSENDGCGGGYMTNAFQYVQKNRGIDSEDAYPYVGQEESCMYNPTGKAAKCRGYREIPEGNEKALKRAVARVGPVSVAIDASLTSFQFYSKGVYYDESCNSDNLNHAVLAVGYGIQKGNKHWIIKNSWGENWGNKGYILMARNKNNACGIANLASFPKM
Method: Unless otherwise stated, all general chemicals and biochemicals were purchased from either the Sigma Chemical Company, Poole, Dorset, U.K or from Fisher Scientific UK, Loughborough, Leicestershire, U.K. Absorbance assays were carried out in flat-bottomed 96-well plates (Spectra; Greiner Bio-One Ltd., Stonehouse, Gloucestershire, U.K.) using a SpectraMax PLUS384 plate reader (Molecular Devices, Crawley, U.K.). […] Fluorescence assays were monitored using a SpectraMax Gemini fluorescence plate reader (Molecular Devices). For substrates employing either a 7-amino-4-methylcoumarin (AMC) or a 7-amino-4-trifluoromethylcoumarin (AFC) fluorophore, assays were monitored at an excitation wavelength of 365 nm and an emission wavelength of 450 nm and the fluorescence plate reader calibrated with AMC. For substrates employing a 3-amino-benzoyl (Abz) fluorophore, assays were monitored at an excitation wavelength of 310 nm and an emission wavelength of 445 nm; the fluorescence plate reader calibrated with 3-amino-benzamide (Fluka). Unless otherwise indicated, all the peptidase substrates were purchased from Bachem UK, St Helens, Merseyside, UK. […] Hydroxyethylpiperazine ethanesulfonate (HEPES), tris-hydroxylmethyl aminomethane (tris) base, bis-tris-propane and all the biological detergents (e.g. CHAPS, zwittergents, etc.) were purchased from CN Biosciences UK, Beeston, Nottinghamshire, U.K. Glycerol was purchased from Amersham Pharmacia Biotech, Little Chalfont, Buckinghamshire, U.K. Stock solutions of substrate or inhibitor were made up to 10 mM in 100% dimethylsulfoxide (DMSO) (Rathburns, Glasgow, U.K.) and diluted as appropriately required. In all cases the DMSO concentration in the assays was maintained at less than 1% (vol./vol.).
Enzyme was added as required to initiate the reaction and the activity, as judged by the change in fluorescence upon conversion of substrate to product, was monitored over time. All assays were carried out at 25±1° C.
Bovine cathepsin S, human cathepsin L, human cathepsin H and human cathepsin B were obtained from CN Biosciences. Recombinant human cathepsin S, human cathepsin K and human cathepsin X were obtained from Dr. Boris Turk (Josef Stefan Institute, Ljubljana, Slovenia). Unless otherwise stated, all peptidase activity assays were carried out in 10 mM bis-tris-propane (BTP), pH 6.5 containing 1 mM EDTA, 5 mM 2-mercaptoethanol and 1 mM CaCl2.
The apparent inhibition constant (Ki) for each compound was determined on the basis that inhibition was reversible and occurred by a pure-competitive mechanism. […] [formula]
[formula] Ki^app=Ki(1+[So]/KM^app) (4)
Curves were fitted by non-linear regression analysis (Prism) using a fixed value for the enzyme concentration.

CPB2.8ΔCTE = biological target: T2, CPB2.8ΔCTE (Leishmania mexicana, UniProt P36400); assay: Leishmania mexicana cysteine protease B (CPB) peptidase activity assay (Ki); format: biochemical
T2 construct: Wild-type recombinant CPB without the C-terminal extention (i.e. CPB2.8ΔCTE); Dr. Jeremy Mottram (Wellcome Centre for Molecular Parasitology, University of Glasgow)
T2 sequence (P36400 126-343, stated change not applied): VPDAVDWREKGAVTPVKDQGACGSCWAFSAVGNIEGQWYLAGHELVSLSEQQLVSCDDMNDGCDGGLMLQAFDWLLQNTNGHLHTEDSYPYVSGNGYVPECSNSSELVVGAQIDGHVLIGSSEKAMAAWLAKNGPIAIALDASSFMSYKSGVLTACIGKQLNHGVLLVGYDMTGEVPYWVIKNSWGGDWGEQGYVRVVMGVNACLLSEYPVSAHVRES
In short: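 Apparent Ki was derived by regression of activity against inhibitor concentration, assuming pure-competitive reversible binding. Reaction: 0.25 nM CPB lacking the C-terminal extension, pH 5.5 acetate buffer (1 mM EDTA, 200 mM NaCl, 10 mM DTT), 25 °C, followed by continuous substrate fluorescence.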

[1] = Ki, inhibitors of Leismania mexicana CPB protease

Row | SMILES | Ki (human cathepsin K) | Ki (CPB2.8ΔCTE; Ki CPB, Table 5) | Ki (CPB2.8ΔCTE; [1])
1 | O=C(N[C@@H](CC1CCCCC1)C(=O)N1CC[C@@H]2[C@H]1C(=O)CN2C(=O)c1ccccc1)c1ccsc1 [Example 250, (3aR,6aS)-Thiophene-3-carboxylic acid [(1S)-2-(4-benzoyl-6-oxo-hexahydro-pyrrolo[3,2-b]pyrrole-1-yl)-1-cyclohexylmethyl-2-oxo-ethyl]-amide] | > 5 µM | > 5 µM | –
2 | CC(C)(C)c1ccc(C(=O)N[C@@H](Cc2ccc(O)cc2)C(=O)N2CC[C@@H]3[C@H]2C(=O)CN3C(=O)c2ccccc2)cc1 [Example 346, (3aR,6aS)-N-[(1S)-2-(4-Benzoyl-6-oxo-hexahydro-pyrrolo[3,2-b]pyrrol-1-yl)-1-(4-hydroxybenzyl)-2-oxo-ethyl]-4-tert-butyl-benzamide] | > 8 µM | > 5 µM | –
3 | CC(C)C[C@H](NC(=O)c1ccc2c(c1)CCCN2)C(=O)N1CC[C@@H]2[C@H]1C(=O)CN2C(=O)c1ccccc1 [Example 87, (3aR,6aS)-1,2,3,4-Tetrahydro-quinoline-6-carboxylic acid [(1S)-1-(4-benzoyl-6-oxo-hexahydro-pyrrolo[3,2-b]pyrrole-1-carbonyl)-3-methyl-butyl]-amide] | – | – | < 5 µM
4 | CC(C)C[C@H](NC(=O)c1cccc(N(C)C)c1)C(=O)N1CC[C@@H]2[C@H]1C(=O)CN2C(=O)c1cccc(S(C)(=O)=O)c1 [Example 59, (3aR,6aS)-3-Dimethylamino-N-{(1S)-1-[4-(3-methanesulfonyl-benzoyl)-6-oxo-hexahydro-pyrrolo[3,2-b]pyrrole-1-carbonyl]-3-methyl-butyl}-benzamide] | – | – | < 5 µM
5 | CC(C)C[C@H](NC(=O)c1ccc(N2CCNCC2)cc1)C(=O)N1CC[C@@H]2[C@H]1C(=O)CN2C(=O)c1ccccc1 [Example 194, (3aR,6aS)-N-[(1S)-1-(4-Benzoyl-6-oxo-hexahydro-pyrrolo[3,2-b]pyrrole-1-carbonyl)-3-methyl-butyl]-4-piperazin-1-yl-benzamide] | – | – | < 5 µM
6 | CC(C)C[C@H](NC(=O)c1ccc(OC(F)(F)F)cc1)C(=O)N1CC[C@@H]2[C@H]1C(=O)CN2C(=O)c1ccccc1 [Example 173, (3aR,6aS)-N-[(1S)-1-(4-Benzoyl-6-oxo-hexahydro-pyrrolo[3,2-b]pyrrole-1-carbonyl)-3-methyl-butyl]-4-trifluoromethoxy-benzamide] | – | – | < 5 µM
7 | CC(C)C[C@H](NC(=O)c1ccc(N(C)C)cc1)C(=O)N1CC[C@@H]2[C@H]1C(=O)CN2C(=O)c1csc2ccccc12 [Example 103, (3aR,6aS)-N-{(1S)-1-[4-(Benzo[b]thiophene-3-carbonyl)-6-oxo-hexahydro-pyrrolo[3,2-b]pyrrole-1-carbonyl]-3-methyl-butyl}-4-dimethylamino-benzamide] | – | – | < 5 µM
8 | CC(C)C[C@H](NC(=O)c1ccc(-n2cccn2)cc1)C(=O)N1CC[C@@H]2[C@H]1C(=O)CN2C(=O)c1ccccc1 [Example 91, (3aR,6aS)-N-[(1S)-1-(4-Benzoyl-6-oxo-hexahydro-pyrrolo[3,2-b]pyrrole-1-carbonyl)-3-methyl-butyl]-4-pyrazol-1-yl-benzamide] | – | – | < 5 µM
9 | CC(C)C[C@H](NC(=O)c1ccc(C(C)(C)C)cc1)C(=O)N1NC[C@@H]2[C@H]1C(=O)CN2C(=O)c1ccccc1 [Example 249a, (3aR,6aS)-N-[(1S)-1-(4-benzoyl-6-oxo-hexahydropyrrolo[3,2-c]pyrazole-1-carbonyl)-3-methylbutyl]-4-tert-butylbenzamide] | – | – | < 5 µM
10 | CC(C)C[C@H](NC(=O)c1ccc2ncsc2c1)C(=O)N1CC[C@@H]2[C@H]1C(=O)CN2C(=O)c1ccccc1 [Example 90, (3aR,6aS)-Benzothiazole-6-carboxylic acid [(1S)-1-(4-benzoyl-6-oxo-hexahydro-pyrrolo[3,2-b]pyrrole-1-carbonyl)-3-methyl-butyl]-amide] | – | – | < 5 µM
11 | CC(C)C[C@H](NC(=O)c1ccc(N(C)C)cc1)C(=O)N1CC[C@@H]2[C@H]1C(=O)CN2C(=O)[C@@H](NC(=O)OCc1ccccc1)C(C)C [Example 158, (3aS,6aR)-((S)-1-{4-[(2S)-2-(4-Dimethylamino-benzoylamino)-4-methyl-pentanoyl]-3-oxo-hexahydro-pyrrolo[3,2-b]pyrrole-1-carbonyl}-2-methyl-propyl)-carbamic acid benzyl ester] | – | – | < 5 µM
12 | CC(C)C[C@H](NC(=O)c1ccc(N)cc1)C(=O)N1NC[C@@H]2[C@H]1C(=O)CN2C(=O)c1cccc(S(C)(=O)=O)c1 [Example 249c, (3aR,6aS)-4-amino-N-{(1S)-1-[4-(3-methanesulfonylbenzoyl)-6-oxo-hexahydropyrrolo [3,2-c]pyrazole-1-carbonyl]-3-methylbutyl}benzamide] | – | – | < 5 µM
13 | CC(C)C[C@H](NC(=O)c1ccc(N(C)C)cc1)C(=O)N1CC[C@@H]2[C@H]1C(=O)CN2C(=O)c1ccccc1 [Example 14, (3aR,6aS)-N-[(1S)-1-(4-Benzoyl-6-oxo-hexahydro-pyrrolo[3,2-b]pyrrole-1-carbonyl)-3-methyl-butyl]-4-dimethylamino-benzamide] | – | – | < 5 µM
14 | CC(=O)N[C@@H](CC(C)C)C(=O)N1CC(=O)[C@@H]2[C@H]1CCN2C(=O)[C@H](CC(C)C)NC(=O)c1ccc(N(C)C)cc1 [Example 151, (3aR,6aS)-N-{(1S)-1-[4-((2S)-2-Acetylamino-4-methyl-pentanoyl)-6-oxo-hexahydro-pyrrolo[3,2-b]pyrrole-1-carbonyl]-3-methyl-butyl}-4-dimethylamino-benzamide] | – | – | < 5 µM
15 | CC(C)C[C@H](NC(=O)c1cccc(N2CCNCC2)c1)C(=O)N1CC[C@@H]2[C@H]1C(=O)CN2C(=O)c1ccccc1 [Example 247, (3aR,6aS)-N-[(1S)-1-(4-Benzoyl-6-oxo-hexahydro-pyrrolo[3,2-b]pyrrole-1-carbonyl)-3-methyl-butyl]-3-piperazin-1-yl-benzamide] | – | – | < 5 µM
16 | O=C(N[C@@H](Cc1ccc(O)cc1)C(=O)N1CC[C@@H]2[C@H]1C(=O)CN2C(=O)c1ccccc1)c1cccc2ccccc12 [Example 296, (3aR,6aS)-Naphthalene-1-carboxylic acid [(1S)-2-(4-benzoyl-6-oxo-hexahydro-pyrrolo[3,2-b]pyrrole-1-yl)-1-(4-hydroxybenzyl)-2-oxo-ethyl]-amide] | > 50 µM | > 5 µM | –
17 | CC(C)C[C@H](NC(=O)c1ccc(-c2cccs2)cc1)C(=O)N1CC[C@@H]2[C@H]1C(=O)CN2C(=O)c1ccccc1 [Example 2, (3aR,6aS)-N-[(1S)-1-(4-Benzoyl-6-oxo-hexahydro-pyrrolo[3,2-b]pyrrole-1-carbonyl)-3-methyl-butyl]-4-thiophen-2-yl-benzamide] | < 0.01 µM | > 0.2 µM | < 5 µM
18 | CC(C)CC(NC(=O)c1ccc(N)cc1)C(=O)N1NC[C@@H]2[C@H]1C(=O)CN2C(=O)c1ccccc1 (stereo partly drawn) [Example 249b, (3aR,6aS)-4-amino-N-[1-(4-benzoyl-6-oxo-hexahydropyrrolo[3,2-c]pyrazole-1-carbonyl)-3-methylbutyl)benzamide] | – | – | < 5 µM
